Test results published in article PMC7522982, “PKIS deep dive yields a chemical starting point for dark kinases and a cell active BRSK2 inhibitor” (Scientific Reports, 2020).

Legend:
EPHB6 = molecular target: T1, EPHB6 (Homo sapiens, UniProt O15197); assay: DiscoverX scanMAX competition binding assay
T1 construct: purchased Eurofins DiscoverX Corporation
Text: (§1) Based on its narrow profile when tested in the combined Nanosyn and TSA panels, GW296115 was included in the recently released Kinase Chemogenomic Set (KCGS)[15]. All of the data presented in the Introduction section was collected prior to the inclusion of GW296115 in KCGS and everything that follows has been subsequently generated. Since its inclusion in PKIS and more recently KCGS, we have carried out a broader round of screening at DiscoverX. This profiling data has not been previously released and is reported here for the first time. GW296115 was profiled against 403 wild type human kinases at 1 μM using the DiscoverX scanMAX screening platform, which employs an active site-directed competition binding assay to quantitatively measure interactions between test compounds and kinases, [16]. GW296115 inhibited 25 kinases > 90% at 1 μM, resulting in a selectivity index (S10) of 0.062 at 1 μM (Table S2, Fig. 1C)[17].
(§2) The scanMAX assays were performed at Eurofins DiscoverX Corporation as previously described.

GAK = molecular target: T2, GAK (Homo sapiens, UniProt O14976); assay: DiscoverX scanMAX competition binding assay
T2 construct: purchased Eurofins DiscoverX (scanMAX) / Eurofins enzymatic assays
Text: as §1, §2

MAP2K5 = molecular target: T3, MAP2K5 (Homo sapiens, UniProt Q13163); assay: DiscoverX scanMAX competition binding assay
T3 construct: purchased Eurofins DiscoverX (scanMAX) / Eurofins enzymatic assays
Text: as §1, §2

MAP3K19 = molecular target: T4, MAP3K19 (Homo sapiens, UniProt Q56UN5); assay: DiscoverX scanMAX competition binding assay
T4 construct: purchased Eurofins DiscoverX (scanMAX) / Eurofins enzymatic assays
Text: as §1, §2

MYLK3/caMLCK = molecular target: T5, MYLK3/caMLCK (Homo sapiens, UniProt Q32MK0); assay: DiscoverX scanMAX competition binding assay
T5 construct: purchased Eurofins DiscoverX Corporation
Text: as §1, §2

RIOK3 = molecular target: T6, RIOK3 (Homo sapiens, UniProt O14730); assay: DiscoverX scanMAX competition binding assay
T6 construct: purchased Eurofins DiscoverX (scanMAX) / Eurofins enzymatic assays
Text: as §1, §2

RPS6KA3/RSK2 = molecular target: T7, RPS6KA3/RSK2 (Homo sapiens, UniProt P51812); assay: Eurofins kinase enzymatic radiometric assay; assay type: biochemical; conditions: Km of ATP, 9-point curve in duplicate
T7 construct: purchased Eurofins
Text: Due to our interest in the activity of GW296115 on several understudied IDG kinases, we collected full dose–response curves for all wild type kinases inhibited ≥ 75% in the DiscoverX panel that were offered by Eurofins. Having data in orthogonal formats is a powerful way to confirm inhibitory activity and adds rigor to our results. Eurofins has kinase enzymatic radiometric assays for 35 of the kinases on this list (Table S2) and a kinase enzymatic LANCE assay for one additional kinase (MAP2K5/MEK5).
Eurofins kinase enzymatic radiometric assays were carried out at the Km of ATP in dose–response (9-pt curve in duplicate) for each kinase for which it was offered.

[1] = test system: BRSK2-induced phosphorylation; assay: Western blot of BRSK2-induced phosphorylation in HEK293T cells; assay type: cell-based
Text: With confirmed cellular activity, we next focused on characterizing the pathways mediated by BRSK2 utilizing GW296115. BRSK2 has a similar kinase domain to AMPK and is activated by LKB1-mediated phosphorylation in the active site at T174[24]–[26]. As previously reported, BRSK2 induces phosphorylation of AMPK substrates. Therefore, we asked whether this BRSK2-induced phosphorylation of AMPK substrates is ablated by GW296115. First, we evaluated the effect of GW296115 on AMPK substrate phosphorylation in HEK293T cells overexpressing wild-type or kinase-dead BRSK2 (Fig. 3B). Specifically, we overexpressed two different kinase-dead BRSK2 constructs, K48A and T174A, and treated cells with 2.5 μM of GW296115 for 2 or 6 h. Compared to cells expressing hcRED control, wild-type BRSK2 overexpression induced AMPK substrate phosphorylation, as measured by phospho-S/T AMPK substrate antibody. This change was not observed when overexpressing kinase-dead variants. BRSK2-induced AMPK substrate phosphorylation was ablated with GW269115 treatment at both 2- and 6-h time-points.
Next we evaluated whether specific bona fide AMPK substrates were phosphorylated by BRSK2. Based on the total pS/T AMPK substrate blots, we decided to check known substrates that match the size of the most robust changes due to BRSK2 overexpression. UNC51-like kinase 1 (ULK1) is a 120 kDa kinase that is member of the autophagy initiation complex, and is phosphorylated by AMPK at multiple residues, S317 and S555, among others[27]–[29]. Therefore, we overexpressed wild type BRSK2 in HEK293T cells and measured changes in pULK1 S317 and S555 following treatment with increasing doses of GW296115 for 2 h. BRSK2 overexpression increased phosphorylation of ULK1 at S317, but not S555. […] However, in samples expressing control hcRED, treatment with GW296115 increased pAMPK T172. We also asked if activating phosphorylation of ULK1 leads to increased phosphorylation of downstream components of the autophagy complex. Therefore we evaluated phosphorylation of S351 on P62 (SQSTM1), which is a stress induced autophagy receptor for ubiquitylated cargo[30]. Due to its central role as a signaling hub, P62 accumulation and phosphorylation serves as a sensor for starvation, oxidative stress, and selective autophagy[30]–[32]. […] Moreover, these phosphorylation events were ablated by GW296115 in a dose dependent manner (Fig. 4B,C).
Western blots were carried out as described previously. HEK293T cells were plated in 6-well format and incubated at 37 °C with 5% CO2 for 12 h. Next, cells were transfected with 1.5 ug of plasmid per well for 24 h and treated with GW296115 (in DMSO). Samples were lysed using standard conditions of RIPA (10% glycerol, 50 mM Tris–HCL, 100 mM NaCl, 2 mM EDTA, 0.1% SDS, 1% Nonidet P-40, and 0.2% Sodium Deoxycholate) supplemented with protease inhibitor cocktail (ThermoFisher Scientific, 78429), phosphatase inhibitor cocktail (ThermoFisher Scientific, 78426), NEM (Thermo Scientific, 23030), and Benzonase (Sigma, E1014). Lysis was carried out on ice over the course of 30 min and resultant lysates were centrifuged at 4 °C for 15 min at 21,000×g. Following normalization of protein concentration via BCA (Pierce, 23225), samples were denatured in NuPAGE LDS buffer (Invitrogen, NP0007) plus 1 mM DTT. Blots were imaged with a LiCor Odyssey imager, and then quantified using ImageStudio 5.2. Finally, ANOVA with multiple comparison was performed for quantitated blots using Prism 8.2.4.

[2] = HEK293T overexpressing wild type BRSK2, increasing doses for 2 h

T3 sequence (Q13163 whole entry): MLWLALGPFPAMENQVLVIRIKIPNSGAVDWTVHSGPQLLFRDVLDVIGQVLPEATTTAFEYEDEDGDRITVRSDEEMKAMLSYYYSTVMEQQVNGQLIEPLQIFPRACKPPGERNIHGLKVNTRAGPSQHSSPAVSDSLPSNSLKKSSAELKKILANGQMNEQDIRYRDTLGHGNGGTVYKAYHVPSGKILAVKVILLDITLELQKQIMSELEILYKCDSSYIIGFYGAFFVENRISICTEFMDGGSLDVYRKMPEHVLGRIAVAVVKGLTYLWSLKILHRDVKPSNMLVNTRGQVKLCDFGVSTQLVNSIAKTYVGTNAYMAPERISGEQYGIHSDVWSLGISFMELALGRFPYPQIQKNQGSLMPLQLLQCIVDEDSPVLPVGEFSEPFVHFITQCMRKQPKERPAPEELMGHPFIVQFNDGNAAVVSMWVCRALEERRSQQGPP
T5 sequence (Q32MK0 whole entry): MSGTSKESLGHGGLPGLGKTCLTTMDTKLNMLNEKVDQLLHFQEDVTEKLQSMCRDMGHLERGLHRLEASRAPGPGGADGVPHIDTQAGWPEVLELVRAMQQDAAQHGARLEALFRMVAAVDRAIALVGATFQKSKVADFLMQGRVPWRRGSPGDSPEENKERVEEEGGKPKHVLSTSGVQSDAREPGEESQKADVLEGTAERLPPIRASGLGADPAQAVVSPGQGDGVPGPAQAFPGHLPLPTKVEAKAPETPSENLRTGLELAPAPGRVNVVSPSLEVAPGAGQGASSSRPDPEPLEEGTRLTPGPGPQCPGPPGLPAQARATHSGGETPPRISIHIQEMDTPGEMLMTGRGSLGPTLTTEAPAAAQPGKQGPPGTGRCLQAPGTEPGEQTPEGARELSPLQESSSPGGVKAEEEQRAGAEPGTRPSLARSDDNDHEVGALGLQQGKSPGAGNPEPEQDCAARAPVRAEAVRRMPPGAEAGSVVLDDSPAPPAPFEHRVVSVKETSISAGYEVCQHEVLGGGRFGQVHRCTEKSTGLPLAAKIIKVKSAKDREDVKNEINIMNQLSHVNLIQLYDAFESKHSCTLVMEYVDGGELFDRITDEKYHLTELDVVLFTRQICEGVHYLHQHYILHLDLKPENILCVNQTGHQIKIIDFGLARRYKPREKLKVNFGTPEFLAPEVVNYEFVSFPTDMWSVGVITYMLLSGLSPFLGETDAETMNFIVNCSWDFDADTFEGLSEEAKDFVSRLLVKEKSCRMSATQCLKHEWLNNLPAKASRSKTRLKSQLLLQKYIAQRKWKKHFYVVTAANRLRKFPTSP
T6 sequence (O14730 whole entry): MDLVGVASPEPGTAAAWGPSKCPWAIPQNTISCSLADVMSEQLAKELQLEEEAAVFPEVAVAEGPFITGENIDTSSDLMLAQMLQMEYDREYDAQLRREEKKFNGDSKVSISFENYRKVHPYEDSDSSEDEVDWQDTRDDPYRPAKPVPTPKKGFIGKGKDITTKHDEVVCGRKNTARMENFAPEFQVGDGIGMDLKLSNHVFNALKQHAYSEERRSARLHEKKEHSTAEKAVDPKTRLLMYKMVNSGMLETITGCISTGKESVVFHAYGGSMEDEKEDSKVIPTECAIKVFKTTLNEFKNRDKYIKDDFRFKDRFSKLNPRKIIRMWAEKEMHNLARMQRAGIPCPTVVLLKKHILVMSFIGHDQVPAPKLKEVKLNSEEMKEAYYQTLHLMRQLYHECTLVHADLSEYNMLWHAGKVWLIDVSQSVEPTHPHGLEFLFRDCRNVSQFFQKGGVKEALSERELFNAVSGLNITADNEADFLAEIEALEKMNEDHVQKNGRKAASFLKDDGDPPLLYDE
T4 sequence (Q56UN5 whole entry): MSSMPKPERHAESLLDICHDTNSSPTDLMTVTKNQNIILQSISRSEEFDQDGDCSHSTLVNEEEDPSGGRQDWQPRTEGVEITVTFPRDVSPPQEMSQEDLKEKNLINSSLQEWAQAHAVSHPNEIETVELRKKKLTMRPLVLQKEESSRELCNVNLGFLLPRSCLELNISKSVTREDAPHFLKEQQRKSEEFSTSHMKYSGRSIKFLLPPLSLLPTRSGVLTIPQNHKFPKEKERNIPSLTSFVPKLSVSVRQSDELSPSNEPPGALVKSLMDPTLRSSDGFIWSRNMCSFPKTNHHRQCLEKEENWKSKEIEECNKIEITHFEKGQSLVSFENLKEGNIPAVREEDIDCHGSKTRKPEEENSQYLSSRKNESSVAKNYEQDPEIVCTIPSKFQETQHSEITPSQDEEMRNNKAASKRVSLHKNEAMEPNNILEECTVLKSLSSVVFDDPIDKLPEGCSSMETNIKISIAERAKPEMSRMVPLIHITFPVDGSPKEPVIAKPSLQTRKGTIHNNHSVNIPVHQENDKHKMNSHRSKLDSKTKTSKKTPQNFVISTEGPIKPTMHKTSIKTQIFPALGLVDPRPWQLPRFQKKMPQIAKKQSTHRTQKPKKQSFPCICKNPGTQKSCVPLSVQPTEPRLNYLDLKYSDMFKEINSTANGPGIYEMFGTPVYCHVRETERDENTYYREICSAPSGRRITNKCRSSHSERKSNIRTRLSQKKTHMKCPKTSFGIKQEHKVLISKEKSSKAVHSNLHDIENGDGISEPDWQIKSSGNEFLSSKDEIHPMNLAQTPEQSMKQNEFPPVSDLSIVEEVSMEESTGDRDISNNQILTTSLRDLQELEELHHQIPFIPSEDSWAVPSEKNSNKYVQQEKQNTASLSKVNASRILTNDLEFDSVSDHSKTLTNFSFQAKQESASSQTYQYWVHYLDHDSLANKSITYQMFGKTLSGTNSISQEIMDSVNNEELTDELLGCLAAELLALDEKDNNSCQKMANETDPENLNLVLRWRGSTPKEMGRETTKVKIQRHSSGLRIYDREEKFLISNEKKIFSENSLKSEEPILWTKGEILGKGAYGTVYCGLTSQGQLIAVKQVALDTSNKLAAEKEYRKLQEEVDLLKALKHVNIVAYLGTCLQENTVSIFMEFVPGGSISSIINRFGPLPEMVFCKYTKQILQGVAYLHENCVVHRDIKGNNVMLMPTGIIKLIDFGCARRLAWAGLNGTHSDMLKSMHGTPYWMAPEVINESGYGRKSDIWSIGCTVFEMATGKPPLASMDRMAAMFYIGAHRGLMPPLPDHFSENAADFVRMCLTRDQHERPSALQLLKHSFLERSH
T7 sequence (P51812 whole entry): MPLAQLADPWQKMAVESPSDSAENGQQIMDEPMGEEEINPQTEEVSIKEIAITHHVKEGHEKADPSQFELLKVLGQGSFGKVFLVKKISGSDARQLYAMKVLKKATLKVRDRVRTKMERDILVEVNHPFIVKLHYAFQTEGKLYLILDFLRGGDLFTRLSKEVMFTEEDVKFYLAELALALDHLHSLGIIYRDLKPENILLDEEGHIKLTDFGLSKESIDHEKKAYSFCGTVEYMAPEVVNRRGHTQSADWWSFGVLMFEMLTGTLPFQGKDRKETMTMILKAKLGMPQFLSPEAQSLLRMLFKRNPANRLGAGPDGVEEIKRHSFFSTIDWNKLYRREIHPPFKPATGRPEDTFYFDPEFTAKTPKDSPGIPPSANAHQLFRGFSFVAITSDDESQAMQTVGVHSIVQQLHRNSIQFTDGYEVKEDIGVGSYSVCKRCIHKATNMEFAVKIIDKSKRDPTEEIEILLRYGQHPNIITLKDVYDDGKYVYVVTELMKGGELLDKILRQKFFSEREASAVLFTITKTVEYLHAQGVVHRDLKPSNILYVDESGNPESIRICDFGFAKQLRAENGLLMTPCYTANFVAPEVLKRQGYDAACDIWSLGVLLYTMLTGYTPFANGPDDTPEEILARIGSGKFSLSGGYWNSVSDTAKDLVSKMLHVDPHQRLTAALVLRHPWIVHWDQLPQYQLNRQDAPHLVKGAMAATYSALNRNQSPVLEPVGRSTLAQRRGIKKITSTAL
T1 sequence (O15197 32-1021): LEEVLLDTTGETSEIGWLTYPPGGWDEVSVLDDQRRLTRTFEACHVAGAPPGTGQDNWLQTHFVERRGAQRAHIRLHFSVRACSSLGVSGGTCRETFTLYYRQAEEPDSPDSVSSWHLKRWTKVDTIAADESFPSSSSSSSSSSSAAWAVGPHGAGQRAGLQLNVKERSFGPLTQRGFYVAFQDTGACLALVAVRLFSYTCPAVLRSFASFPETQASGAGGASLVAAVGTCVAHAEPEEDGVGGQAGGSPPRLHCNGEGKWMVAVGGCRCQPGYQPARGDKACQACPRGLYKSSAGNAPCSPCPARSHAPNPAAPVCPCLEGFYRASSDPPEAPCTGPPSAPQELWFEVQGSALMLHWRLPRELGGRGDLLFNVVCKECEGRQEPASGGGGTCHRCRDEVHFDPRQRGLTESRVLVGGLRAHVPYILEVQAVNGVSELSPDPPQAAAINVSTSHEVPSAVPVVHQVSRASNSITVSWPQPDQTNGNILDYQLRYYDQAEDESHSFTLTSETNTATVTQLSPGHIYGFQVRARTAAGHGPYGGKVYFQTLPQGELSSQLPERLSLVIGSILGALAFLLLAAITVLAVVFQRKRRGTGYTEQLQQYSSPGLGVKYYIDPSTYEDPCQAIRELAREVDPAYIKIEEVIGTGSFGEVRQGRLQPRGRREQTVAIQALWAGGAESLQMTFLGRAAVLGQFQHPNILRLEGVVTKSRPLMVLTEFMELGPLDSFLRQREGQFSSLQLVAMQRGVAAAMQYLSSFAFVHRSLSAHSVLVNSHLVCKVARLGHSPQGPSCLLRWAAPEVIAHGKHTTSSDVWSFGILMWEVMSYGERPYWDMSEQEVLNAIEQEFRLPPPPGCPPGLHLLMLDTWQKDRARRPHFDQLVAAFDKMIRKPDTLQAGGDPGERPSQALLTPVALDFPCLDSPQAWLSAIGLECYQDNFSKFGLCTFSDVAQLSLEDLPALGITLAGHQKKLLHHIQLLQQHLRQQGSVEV

Q: Which results are given for `COc1ccc2[nH]c3c4[nH]c5ccc(OC)cc5c4c4c(c3c2c1)C(=O)NC4=O` [GW296115]?
A: inhibition at 1 µM (EPHB6): 85%; inhibition at 1 µM (GAK): 96.7%; inhibition at 1 µM (MAP2K5): 99.5%; inhibition at 1 µM (MAP3K19): 100%; inhibition at 1 µM (MYLK3/caMLCK): 80%; inhibition at 1 µM (RIOK3): 89%; IC50 (RPS6KA3/RSK2): 11 nM; BRSK2-induced phosphorylation of ULK1 S317 [1, 2]: decreased dose-dependently; pP62 S351 following BRSK2 overexpression [1, 2]: dose dependently downregulated; BRSK2-induced AMPK substrate phosphorylation (phospho-S/T AMPK substrate antibody) ([1]; HEK293T overexpressing wild-type BRSK2, 2.5 μM for 2 or 6 h): ablated; phosphorylation of BRSK2 at T174 ([1]; HEK293T overexpressing wild-type or K48A BRSK2): hyper-phosphorylated; phosphorylation at the LKB1 target site (T172) on AMPK ([1]; HEK293T, 2.5 μM for 2 or 6 h): did not inhibit
